US20040072846A1, “Pharmaceutical formulation containing thienopyrimidines and antithrombotics, calcium antagonists, prostaglandins or prostaglandin derivatives” (priority 2000, published 2004)

SMILES: COc1ccc(CNc2nc(CCC(=O)O)nc3sc4c(c23)CCCC4)cc1Cl [Example 2, 3-[4-(3-chloro-4-methoxybenzylamino)-5,6,7,8-tetrahydro-[1]-benzothieno-[2,3-d]-pyrimidin-2-yl]propionic acid]
- melting point: 229 °C
